In patent publication US11700805B2, “Regeneration of plants in the presence of histone deacetylase inhibitors” (KWS SAAT SE & CO. KGaA, priority 2017, dated 2023):
“Also recorded” adds a separate entry of the source. Where two headings read alike, the source gives them in different places.

Key:
[1] = test system: cells derived from male gametophytes of diverse plant species; conditions: TSA added to the culture medium; cited from earlier work
[2] = test system: friable calli from sugar beet leaf explants; test: Shoot regeneration from friable calli induced in the presence of TSA; type: cell-based, Beta vulgaris
Method: 2. Technical Description of the Shoot Regeneration Protocol 1. The friable calli of step 4 were harvested in medium containing MS salts, 30 g/l sucrose, 1 mg/l GA3 and 1 mg/l TDZ, and transferred to separate dishes. 2. The dishes were incubated under the light (16 h) at 24° C. for 10 days. 3. Developing shoots were counted under a stereomicroscope, in order to estimate the regeneration capacity (number of shoots per initial leaf explant).

[3] = test system: leaf explants of sugar beet (Beta vulgaris); type: cell-based
Method: 1. Technical Description of the Sugar Beet Callus Induction Protocol
This method is based on the publication by Kischenko et al., 2005 Cell Biology International.
1. Micropropagated shoots of the genotype S706 were used as starting material. Shoots were multiplied in MS salts supplemented with 30 g/l sucrose and 0.25 mg/l benzyladenine (BAP).
2. To induce friable callus, leaf explants were isolated from micropropagated shoots and incubated in medium containing MS salts including 15 g/l sucrose and 2 mg/l BAP as a control and in the same medium supplemented with 0.01 μM TSA (B1), 0.1 μM TSA (B2), 0.5 μM TSA (B3), 1.0 μM TSA (B4), and 5.0 μM TSA (B5), at 28° C. in the dark for 7 weeks.
3. Development of callus from leaf explants was monitored during the incubation in the callus induction medium at 4, 5, 6 and 7 weeks.
4. Leaf explants producing friable calli were scored in order to calculate the callus induction frequency (percentage of leaf explants that produced friable calli).

[4] = test system: Arabidopsis hypocotyl explants; conditions: alone or in combination of kinetin and TSA; cited from earlier work
[5] = test system: Arabidopsis leaf explants; conditions: treatment with TSA; cited from earlier work

SMILES	proportion of cells undergoing embryogenic growth [1]	average number of shoots per explant ([2]; genotype 1, callus induced with 0.01 μM TSA, control 4.7)	average number of shoots per explant ([2]; genotype 2, callus induced with 0.01 μM TSA, control 2.4)	regeneration of shoots from produced calli ([2]; genotype 3 (high level of recalcitrance), callus induced with 0.01 μM TSA)	number of regenerated shoots per explant ([2]; genotype S706, FIGS. 3C and 4C, vs control)	number of leaf explants with developing calli ([3]; after 28 days, without TSA not reached even after 49 days)	genotype-dependent recalcitrance to callus formation ([3]; first initial tests, TSA added)	average callus induction frequency ([3]; genotype 1, 0.01 μM TSA, control without TSA 66.3%)	callus induction frequency ([3]; genotype 2, 0.01 μM TSA vs control)	callus induction frequency ([3]; genotype 3 (high level of recalcitrance), 0.01 μM TSA)	speed of callus formation ([3]; genotype S706, FIG. 5, vs medium without TSA)	callus amount per leaf explant ([3]; genotype S706, FIGS. 3B and 4B, vs medium without TSA)	callus induction frequency (percentage of leaf explants that produced friable calli) ([3]; genotype S706, TSA 0.01 μM to 1.0 μM in callus induction medium, vs medium without TSA)	induction of callus growth [4]	callus formation [5]
CC(/C=C/C(=O)NO)=C\[C@@H](C)C(=O)c1ccc(N(C)C)cc1 [TSA, trichostatin A]	large increase	7.7	4.6	able to regenerate shoots only when the calli were produced in medium containing TSA; also recorded: only possible if the callus has been induced in the presence of TSA	increased	high number	could be reduced	82%	no significant increase	very low	accelerates	increases	increased	did not induce callus growth	defective callus formation
c1coc(CNc2ncnc3[nH]cnc23)c1 [Kinetin]	–	–	–	–	–	–	–	–	–	–	–	–	–	did not induce callus growth	–
